# From article PMC6429214, “Design, Synthesis and Biological Evaluation of Isoxazole-Based CK1 Inhibitors Modified with Chiral Pyrrolidine Scaffolds” (Molecules, 2019)
# Columns and labels:
# Assay in all cases: 33PanQinase panel
# Format in all cases: biochemical
# [1] = molecular target: T1, CAMKK1 (Homo sapiens, UniProt Q8N5S9); conditions: CAMKK1, 1 µM; read-out: Residual Activity (%)
# T1 construct: purchased ProQinase
# Summary of the method: (§1)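 Single-point screen at 1 µM in a 320 wild-type kinase panel using activity-based radiometric 33P assay; final DMSO 1%. Values are percent residual kinase activity relative to DMSO control.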
# [2] = molecular target: T2, CDK2/CycA2 (Homo sapiens, UniProt P24941); conditions: CDK2/CycA2, 1 µM; read-out: Residual Activity (%)
# T2 construct: purchased ProQinase
# Summary of the method: as §1
# [3] = molecular target: T3, CLK1 (Homo sapiens, UniProt P49759); conditions: CLK1, 1 µM; read-out: Residual Activity (%)
# T3 construct: purchased ProQinase
# Summary of the method: as §1
# [4] = molecular target: T4, DNA-PK (Homo sapiens, UniProt P78527); conditions: read-out: Residual Activity (%)
# T4 construct: purchased ProQinase
# Summary of the method: as §1
# [5] = molecular target: T5, EIF2AK2 (Homo sapiens, UniProt P19525); conditions: EIF2AK2, 1 µM; read-out: Residual Activity (%)
# T5 construct: purchased ProQinase
# Summary of the method: as §1
# [6] = molecular target: T6, EPHA8 (Homo sapiens, UniProt P29322); conditions: EPHA8, 1 µM; read-out: Residual Activity (%)
# T6 construct: purchased ProQinase
# Summary of the method: as §1
# [7] = molecular target: T7, FAK aa2-1052 (Homo sapiens, UniProt Q05397); conditions: FAK aa2-1052, 1 µM; read-out: Residual Activity (%)
# T7 construct: purchased ProQinase
# Summary of the method: as §1
# [8] = molecular target: T8, FER (Homo sapiens, UniProt P16591); conditions: read-out: Residual Activity (%)
# T8 construct: purchased ProQinase
# Summary of the method: as §1
# [9] = molecular target: T9, GRK3 (Homo sapiens, UniProt P35626); conditions: GRK3, 1 µM; read-out: Residual Activity (%)
# T9 construct: purchased ProQinase
# Summary of the method: as §1
# [10] = molecular target: T10, MAP3K11 (Homo sapiens, UniProt Q16584); conditions: MAP3K11, 1 µM; read-out: Residual Activity (%)
# T10 construct: purchased ProQinase
# Summary of the method: as §1
# [11] = molecular target: T11, MAP3K9 (Homo sapiens, UniProt P80192); conditions: MAP3K9, 1 µM; read-out: Residual Activity (%)
# T11 construct: purchased ProQinase
# Summary of the method: as §1
# [12] = molecular target: T12, MARK4 (Homo sapiens, UniProt Q96L34); conditions: MARK4, 1 µM; read-out: Residual Activity (%)
# T12 construct: purchased ProQinase
# Summary of the method: as §1
# [13] = molecular target: T13, PAK1 (Homo sapiens, UniProt Q13153); conditions: PAK1, 1 µM; read-out: Residual Activity (%)
# T13 construct: purchased ProQinase
# Summary of the method: as §1
# [14] = molecular target: T14, PHKG1 (Homo sapiens, UniProt Q16816); conditions: PHKG1, 1 µM; read-out: Residual Activity (%)
# T14 construct: purchased ProQinase
# Summary of the method: as §1
# [15] = molecular target: T15, PIM2 (Homo sapiens, UniProt Q9P1W9); conditions: PIM2, 1 µM; read-out: Residual Activity (%)
# T15 construct: purchased ProQinase
# Summary of the method: as §1
# [16] = molecular target: T16, PRKG1 (Homo sapiens, UniProt Q13976); conditions: PRKG1, 1 µM; read-out: Residual Activity (%)
# T16 construct: purchased ProQinase
# Summary of the method: as §1
# [17] = molecular target: T17, PYK2 (Homo sapiens, UniProt Q14289); conditions: PYK2, 1 µM; read-out: Residual Activity (%)
# T17 construct: purchased ProQinase
# Summary of the method: as §1
# [18] = molecular target: T18, SIK2 (Homo sapiens, UniProt Q9H0K1); conditions: SIK2, 1 µM; read-out: Residual Activity (%)
# T18 construct: purchased ProQinase
# Summary of the method: as §1
# [19] = molecular target: T19, SRC (GST-HIS-tag) (Homo sapiens, UniProt P12931); conditions: read-out: Residual Activity (%)
# T19 construct: purchased ProQinase
# Summary of the method: as §1
# [20] = molecular target: T20, TLK2 (Homo sapiens, UniProt Q86UE8); conditions: TLK2, 1 µM; read-out: Residual Activity (%)
# T20 construct: purchased ProQinase
# Summary of the method: as §1
# [21] = molecular target: T21, TTBK1 (Homo sapiens, UniProt Q5TCY1); conditions: TTBK1, 1 µM; read-out: Residual Activity (%)
# T21 construct: purchased ProQinase
# Summary of the method: as §1
# [22] = molecular target: T22, TYK2 (Homo sapiens, UniProt P29597); conditions: TYK2, 1 µM; read-out: Residual Activity (%)
# T22 construct: purchased ProQinase
# Summary of the method: as §1
# T21 sequence (Q5TCY1 whole entry): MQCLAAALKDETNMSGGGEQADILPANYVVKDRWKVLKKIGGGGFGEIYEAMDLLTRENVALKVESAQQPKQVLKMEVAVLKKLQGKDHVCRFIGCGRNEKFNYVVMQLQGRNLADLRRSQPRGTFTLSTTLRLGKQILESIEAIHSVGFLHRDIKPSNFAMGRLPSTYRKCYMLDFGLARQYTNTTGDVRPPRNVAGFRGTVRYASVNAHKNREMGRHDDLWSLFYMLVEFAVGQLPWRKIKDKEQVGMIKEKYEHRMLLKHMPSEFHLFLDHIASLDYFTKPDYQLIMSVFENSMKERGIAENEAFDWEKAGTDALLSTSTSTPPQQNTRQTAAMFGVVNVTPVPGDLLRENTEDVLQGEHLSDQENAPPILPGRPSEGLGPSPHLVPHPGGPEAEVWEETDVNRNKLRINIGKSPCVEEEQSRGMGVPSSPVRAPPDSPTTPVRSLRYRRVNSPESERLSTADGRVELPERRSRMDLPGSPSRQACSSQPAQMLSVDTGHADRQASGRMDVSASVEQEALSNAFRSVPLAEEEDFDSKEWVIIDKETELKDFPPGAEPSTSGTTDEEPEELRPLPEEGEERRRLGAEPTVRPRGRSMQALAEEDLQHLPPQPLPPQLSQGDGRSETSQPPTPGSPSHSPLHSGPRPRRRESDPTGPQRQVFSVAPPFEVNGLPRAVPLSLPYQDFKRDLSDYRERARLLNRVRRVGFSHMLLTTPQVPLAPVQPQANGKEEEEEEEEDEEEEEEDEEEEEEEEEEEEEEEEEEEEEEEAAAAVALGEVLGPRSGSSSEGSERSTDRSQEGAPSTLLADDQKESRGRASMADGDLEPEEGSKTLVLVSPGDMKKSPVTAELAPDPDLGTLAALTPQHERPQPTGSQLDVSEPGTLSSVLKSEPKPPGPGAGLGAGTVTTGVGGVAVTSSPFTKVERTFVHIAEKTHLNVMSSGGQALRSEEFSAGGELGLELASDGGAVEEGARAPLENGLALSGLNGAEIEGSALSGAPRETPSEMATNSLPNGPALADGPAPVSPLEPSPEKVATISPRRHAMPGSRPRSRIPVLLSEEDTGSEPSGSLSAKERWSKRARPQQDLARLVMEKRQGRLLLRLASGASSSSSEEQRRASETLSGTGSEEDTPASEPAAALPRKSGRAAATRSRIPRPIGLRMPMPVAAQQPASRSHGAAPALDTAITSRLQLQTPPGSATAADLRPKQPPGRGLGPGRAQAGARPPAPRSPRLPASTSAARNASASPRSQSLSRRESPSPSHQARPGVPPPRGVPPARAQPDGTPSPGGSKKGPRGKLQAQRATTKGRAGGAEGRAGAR
# T9 sequence (P35626 whole entry): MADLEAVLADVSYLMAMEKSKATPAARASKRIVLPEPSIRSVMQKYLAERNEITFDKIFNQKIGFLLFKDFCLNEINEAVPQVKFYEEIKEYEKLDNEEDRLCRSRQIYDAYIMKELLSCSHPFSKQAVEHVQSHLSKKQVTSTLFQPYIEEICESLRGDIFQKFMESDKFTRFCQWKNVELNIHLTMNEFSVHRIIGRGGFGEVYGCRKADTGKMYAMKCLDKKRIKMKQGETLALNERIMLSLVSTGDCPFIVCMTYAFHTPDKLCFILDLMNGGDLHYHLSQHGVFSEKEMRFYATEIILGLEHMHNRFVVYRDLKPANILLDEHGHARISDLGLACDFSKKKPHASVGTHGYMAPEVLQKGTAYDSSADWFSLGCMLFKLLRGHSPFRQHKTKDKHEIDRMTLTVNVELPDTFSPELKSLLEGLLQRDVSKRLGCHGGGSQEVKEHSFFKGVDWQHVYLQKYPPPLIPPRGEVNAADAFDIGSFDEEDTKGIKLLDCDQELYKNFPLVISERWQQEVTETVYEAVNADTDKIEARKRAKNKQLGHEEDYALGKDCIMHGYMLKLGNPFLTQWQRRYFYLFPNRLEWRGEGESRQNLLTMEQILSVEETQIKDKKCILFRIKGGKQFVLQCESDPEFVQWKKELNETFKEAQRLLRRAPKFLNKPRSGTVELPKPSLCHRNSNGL
# T19 sequence (P12931 whole entry): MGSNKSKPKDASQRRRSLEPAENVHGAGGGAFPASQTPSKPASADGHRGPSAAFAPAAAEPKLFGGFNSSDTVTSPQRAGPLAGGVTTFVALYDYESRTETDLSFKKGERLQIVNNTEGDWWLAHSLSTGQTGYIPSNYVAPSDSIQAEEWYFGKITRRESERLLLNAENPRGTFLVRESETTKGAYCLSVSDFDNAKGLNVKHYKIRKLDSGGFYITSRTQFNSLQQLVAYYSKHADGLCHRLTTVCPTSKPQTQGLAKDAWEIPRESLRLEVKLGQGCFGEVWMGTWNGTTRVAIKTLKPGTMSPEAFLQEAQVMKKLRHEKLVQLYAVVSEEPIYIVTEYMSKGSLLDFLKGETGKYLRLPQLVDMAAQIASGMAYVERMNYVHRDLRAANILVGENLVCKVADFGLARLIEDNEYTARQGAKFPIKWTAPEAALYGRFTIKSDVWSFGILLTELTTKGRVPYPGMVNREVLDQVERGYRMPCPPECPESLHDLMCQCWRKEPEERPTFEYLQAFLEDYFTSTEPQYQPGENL
# T6 sequence (P29322 28-1005): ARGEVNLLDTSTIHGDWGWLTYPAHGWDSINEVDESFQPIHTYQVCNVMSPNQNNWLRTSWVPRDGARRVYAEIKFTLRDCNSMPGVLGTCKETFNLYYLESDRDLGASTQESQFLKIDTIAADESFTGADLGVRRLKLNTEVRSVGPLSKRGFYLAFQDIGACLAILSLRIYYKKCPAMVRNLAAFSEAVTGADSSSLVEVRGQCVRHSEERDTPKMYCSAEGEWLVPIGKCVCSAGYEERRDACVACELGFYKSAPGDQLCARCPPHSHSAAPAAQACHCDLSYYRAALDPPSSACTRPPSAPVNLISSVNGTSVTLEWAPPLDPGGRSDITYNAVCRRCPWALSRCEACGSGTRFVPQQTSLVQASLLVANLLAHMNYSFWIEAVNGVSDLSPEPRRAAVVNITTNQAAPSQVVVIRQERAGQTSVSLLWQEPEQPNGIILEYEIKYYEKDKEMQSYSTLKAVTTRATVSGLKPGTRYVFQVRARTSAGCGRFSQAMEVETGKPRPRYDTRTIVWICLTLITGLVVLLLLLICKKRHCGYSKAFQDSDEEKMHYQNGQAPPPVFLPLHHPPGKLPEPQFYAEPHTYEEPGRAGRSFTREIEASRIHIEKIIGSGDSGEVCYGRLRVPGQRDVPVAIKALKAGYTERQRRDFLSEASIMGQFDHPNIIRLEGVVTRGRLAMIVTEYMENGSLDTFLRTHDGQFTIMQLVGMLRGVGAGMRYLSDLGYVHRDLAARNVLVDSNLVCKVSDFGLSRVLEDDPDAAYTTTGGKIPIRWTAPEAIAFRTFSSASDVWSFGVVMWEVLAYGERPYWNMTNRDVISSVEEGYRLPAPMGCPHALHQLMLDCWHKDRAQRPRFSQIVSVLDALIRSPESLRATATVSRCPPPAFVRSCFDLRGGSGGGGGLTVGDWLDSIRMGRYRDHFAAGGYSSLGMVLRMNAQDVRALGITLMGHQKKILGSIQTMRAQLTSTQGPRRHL
# T10 sequence (Q16584 whole entry): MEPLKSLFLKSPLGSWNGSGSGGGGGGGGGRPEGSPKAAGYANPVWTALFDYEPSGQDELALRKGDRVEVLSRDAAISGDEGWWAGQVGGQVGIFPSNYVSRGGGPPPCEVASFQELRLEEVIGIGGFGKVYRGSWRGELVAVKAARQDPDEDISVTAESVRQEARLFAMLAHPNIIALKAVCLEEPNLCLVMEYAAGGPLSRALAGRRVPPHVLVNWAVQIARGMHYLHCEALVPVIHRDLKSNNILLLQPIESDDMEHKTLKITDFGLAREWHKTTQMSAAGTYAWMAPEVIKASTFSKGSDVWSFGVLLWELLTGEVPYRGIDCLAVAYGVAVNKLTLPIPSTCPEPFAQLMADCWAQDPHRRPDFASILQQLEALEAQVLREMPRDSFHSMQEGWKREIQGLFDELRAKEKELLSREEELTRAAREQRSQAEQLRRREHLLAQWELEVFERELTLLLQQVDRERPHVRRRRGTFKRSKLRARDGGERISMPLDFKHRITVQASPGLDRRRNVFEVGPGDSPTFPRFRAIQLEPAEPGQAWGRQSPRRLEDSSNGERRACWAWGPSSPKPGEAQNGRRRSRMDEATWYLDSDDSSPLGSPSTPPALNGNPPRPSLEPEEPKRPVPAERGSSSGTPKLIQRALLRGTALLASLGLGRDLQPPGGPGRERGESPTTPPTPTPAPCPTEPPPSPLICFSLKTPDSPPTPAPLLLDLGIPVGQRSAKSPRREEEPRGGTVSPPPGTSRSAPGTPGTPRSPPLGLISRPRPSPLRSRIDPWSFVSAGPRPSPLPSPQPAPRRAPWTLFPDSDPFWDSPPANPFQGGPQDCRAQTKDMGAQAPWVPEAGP
# T16 sequence (Q13976 whole entry): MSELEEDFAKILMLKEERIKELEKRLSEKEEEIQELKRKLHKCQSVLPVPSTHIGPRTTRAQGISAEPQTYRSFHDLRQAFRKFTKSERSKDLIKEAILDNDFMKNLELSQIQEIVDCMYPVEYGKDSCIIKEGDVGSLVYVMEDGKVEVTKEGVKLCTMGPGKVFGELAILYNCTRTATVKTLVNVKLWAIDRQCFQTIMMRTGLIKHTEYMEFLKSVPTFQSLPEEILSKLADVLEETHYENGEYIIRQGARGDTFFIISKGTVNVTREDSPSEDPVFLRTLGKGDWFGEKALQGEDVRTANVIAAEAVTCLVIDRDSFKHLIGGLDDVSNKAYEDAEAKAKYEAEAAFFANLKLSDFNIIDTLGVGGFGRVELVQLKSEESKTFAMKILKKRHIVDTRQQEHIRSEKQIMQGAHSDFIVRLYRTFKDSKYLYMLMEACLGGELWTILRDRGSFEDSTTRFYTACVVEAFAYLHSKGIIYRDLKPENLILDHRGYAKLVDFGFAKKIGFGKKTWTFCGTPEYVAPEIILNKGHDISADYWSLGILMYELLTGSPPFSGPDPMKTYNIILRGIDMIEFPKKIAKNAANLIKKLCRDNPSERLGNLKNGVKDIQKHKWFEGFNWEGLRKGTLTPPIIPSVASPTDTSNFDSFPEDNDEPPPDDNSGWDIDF
structure (smiles),measurement,setting,value
COc1ccc(-c2cc(C(=O)Nc3cc(-c4c(-c5ccc(F)cc5)noc4C(C)C)ccn3)n(CC3NCC(O)C3O)c2)cc1 (stereo not shown) [29d],remaining activity at 1 µM,[1],89%
same,remaining activity at 1 µM,[2],102%
same,remaining activity at 1 µM,[3],97%
same,remaining activity at 1 µM,[4],95%
same,remaining activity at 1 µM,[5],132%
same,remaining activity at 1 µM,[6],113%
same,remaining activity at 1 µM,[7],120%
same,remaining activity at 1 µM,[8],98%
same,remaining activity at 1 µM,[9],109%
same,remaining activity at 1 µM,[10],88%
same,remaining activity at 1 µM,[11],116%
same,remaining activity at 1 µM,[12],112%
same,remaining activity at 1 µM,[13],88%
same,remaining activity at 1 µM,[14],90%
same,remaining activity at 1 µM,[15],84%
same,remaining activity at 1 µM,[16],89%
same,remaining activity at 1 µM,[17],116%
same,remaining activity at 1 µM,[18],98%
same,remaining activity at 1 µM,[19],125%
same,remaining activity at 1 µM,[20],108%
same,remaining activity at 1 µM,[21],104%
same,remaining activity at 1 µM,[22],85%
